From patent US20260000783A1, “ANTIBODY-DRUG CONJUGATE WITH IMPROVED THERAPEUTIC WINDOW” (priority 2018, published 2026)

What was measured:
[1] = tested on: SK-BR-3, JIMT-1, MDA-MB-468, A431, CaSKi, HeLa, A2058; assay: Control treatments on all cell lines, relative cell viability (Example 8); assay type: cell-based, human; settings: wide range of toxin concentrations, up to 100.000 pM (FIG. 14D)
Hela cells = assay: Cell viability assay (MTS) of HeLa cells with SO1861 + dianthin-EGF and PAMAM, PAMAM-conjugates, G4-dendron or chloroquine; assay type: cell-based, human; settings: positive control
Procedure: Hela cells were seeded in DMEM (PAN-Biotech GmbH) supplemented with 10% fetal bovine serum (PAN-Biotech GmbH) and 1% penicillin/streptomycin (PAN-Biotech GmbH), in a 96 well plate at 5,000 c/w in 100 μL/well and incubated overnight at 37° C. and 5% CO2. The next day 20× concentrated stocks of the PAMAM, PAMAM-conjugates, G4-dendron (prepared in Example 3) or chloroquine (Sigma Aldrich) samples were prepared in DMEM. The media was removed from the cell culture plate and replaced by 160 μL culture media, followed by the addition of 10 μL sample/well (from the 20× concentrated stocks) and a 45 min incubation at 37° C. […] Followed by 15 sec sonication and a brief re-heating at 50° C. for 1 min, while shaking at 1,250 rpm. Subsequently a serial dilution of SO1861 was prepared in PBS.
Scientific Multiskan FC plate reader (Thermo Scientific).

Compound	relative cell viability [1]	fold increase in glycoside amount to observe 50% cell killing (Hela cells) [fold]
saporin	do not or hardly have any influence on cell viability	
CCN(CC)CCCC(C)Nc1ccnc2cc(Cl)ccc12 (centres unmarked) [Chloroquine]		2
